Experimental data: patent publication US7592320B2, “Cancer gene therapy based on translational control of a suicide gene” (priority 2001, dated 2009)
Where two headings read alike, the source gives them in different places.

Legend:
[1] = tested on: MDA-231; settings: for ED50: GCV 14 days
[2] = tested on: MCF-10A; settings: GCV 14 days
[3] = tested on: MM2MT tumors; assay: Tumor ablation, MM2MT mammary fat pad tumors (about 40 mm^3) in athymic mice; type: in vivo, BALB/c athymic nu/nu mice; settings: GCV administered alone (data not shown)
Description: 10^6 MM2MT cells were suspended in 0.1 ml serum and antibiotic-free DMEM medium and injected subcutaneously into the mammary fat pad. Tumor latency was determined as the time necessary for the tumors to grow to 0.5 cm (largest diameter). Tumor doubling times were determined by daily measuring the smallest (d) and the largest (D) diameters with calipers, and estimating the volume using the formula, V=D×d^2×0.52. The reported numbers are the mean and standard deviation of the tumor volumes for each group.
When the tumor volumes were approximately 40 mm^3, the mice were randomly separated into two groups, and either the BK-TK or the BK-UTK vectors were injected as a liposomal complex near the tumor. To make the liposomal complex for transfection of primary tumors, 10 μg of endotoxin-free purified (QIAGEN, Inc., Valencia, Calif.) plasmid DNA was diluted in 50 μl medium without serum or antibiotics. In a separate tube, 50 μl of GenePORTER reagent (Gene Therapy Systems, San Diego, Calif.) was mixed with 50 μl serum and antibiotic-free medium. The two tubes were then combined, briefly vortexed, and allowed to incubate at room temperature for 20 minutes, after which the resulting liposome complex was injected between the tumor and the skin of the mouse.
One of the 6 mice in each group had no palpable tumor remaining at the end of the 10-day treatment.

[4] = tested on: MM2MT; assay: cells; settings: Mus musculus, 336 h, GCV 14 days
Description: (§1) Each vector was then stably transfected into either MM3MG cells (ATCC No.CRL6376, a normal mouse mammary line) or MM2MT cells (ATCC No. CRL6373, a mouse mammary carcinoma line). Unless otherwise stated, all cell lines were purchased from the American Type Culture Collection (“ATCC”), Manassas, Va. To overexpress eIF4E (referred to as eIF4E-S, for “sense”), the eIF4E cDNA was cloned into KpnI and NotI sites of the pREP7 episomal vector (Invitrogen, Carlsbad, Calif.). To reduce the eIF4E expression (referred to as eIF4E-AS, for “antisense”), an antisense eIF4E construct was subcloned into the pREP7 vector as described in A. De Benedetti et al., “Expression of antisense RNA against initiation factor eIF-4E mRNA in HeLa cells results in lengthened cell division times, diminished translation rates, and reduced levels of both eIF-4E and the P220 component of eIF-4F,” Mol. Cell. Biol., vol. 11, pp. 5435-5445 (1991).
(§2) All transfections were performed with the GenePORTER reagent (Gene Therapy Systems, San Diego, Calif.). Stable cell lines were obtained by selection with G418 for the BK constructs, and Hygromycin B for the pREP7 vectors.

[5] = tested on: MM3MG; assay: cells; settings: for EC50: Mus musculus, MM3MG, 336 h, GCV 14 days
Description: as §1, §2

[6] = tested on: MDA-435S; settings: GCV 14 days
[7] = tested on: MCF7; settings: GCV 14 days

EC50 ([4]; read-out: ED50, MM2MT-TK cells): 0.095 µM
EC50 ([4]; read-out: ED50, MM2MT-TK/4E-AS cells): 0.15 µM
EC50 ([4]; read-out: ED50, MM2MT-UTK cells): 0.5 µM
EC50 ([4]; read-out: ED50, MM2MT-UTK/4E-AS cells): 55 µM
EC50 ([5]; read-out: ED50, MM3MG-TK cells): 0.3 µM
EC50 ([5]; read-out: ED50, MM3MG-UTK cells): 75 µM
EC50 ([5]; read-out: ED50, MM3MG-UTK/4E-AS cells (so in the source)): 0.9 µM
SMILES: Nc1nc(O)c2ncn(COC(CO)CO)c2n1 [GCV, Ganciclovir]
GCV concentration of non-specific toxicity ([1]; MDA-231-TK and MDA-231-UTK cells, otherwise insensitive to GCV): 5 mM
ED50 ([1]; MDA-231-TK cells): 4000 µM
ED50 ([1]; MDA-231-UTK cells): 4000 µM
ED50 ([1]; MDA-231 untransfected cells): 6000 µM
ED50 ([2]; MCF-10A untransfected cells): 6000 µM
ED50 ([2]; MCF-10A-TK cells): 300 µM
ED50 ([2]; MCF-10A-UTK cells): 5500 µM
effect on the growth of MM2MT tumors [3]: no effect
EC50 ([4]; read-out: ED50, MM2MT untransfected cells): 95 µM
GCV concentration to which cells were sensitive (dose-response curve) ([5]; MM3MG-TK (normal) cells, 14 days): 0.1 µM
EC50 ([5]; read-out: ED50, MM3MG untransfected cells, concentration that kills 50% of the cells): 200 µM
GCV concentration at which cells were non-specifically inhibited ([5]; untransfected MM3MG cells, 14 days): 200 µM
ED50 ([6]; MDA-435S untransfected cells): 350 µM
ED50 ([6]; MDA-435S-TK cells): 15 µM
ED50 ([6]; MDA-435S-UTK cells): 15 µM
ED50 ([7]; MCF7-TK cells): 20 µM
ED50 ([7]; MCF7-UTK cells): 10 µM
ED50 ([7]; MCF7 untransfected cells): 6000 µM
